Results as given in paper PMC6804443 (Acta Pharmaceutica Sinica. B, 2019).

How the values were obtained:
[1] = XueBiJing compounds; cited from earlier work
[2] = XueBiJing compounds, cited from earlier work; for LogD(7.4): pH 7.4
[3] = cited from earlier work; for fu-p (unbound fraction in plasma): human plasma
[4] = system: P450 enzymes, UGTs, SULTs, OATP1B1/1B3, OAT1/3, OCT2, MATE1/2-K, MDR1, BCRP; settings: cited from earlier work
UGT2B15 = biological target: T1, UGT2B15 (Homo sapiens, UniProt P54855); settings: read-out: Km as UGT2B15 substrate; cited from earlier work
T1 sequence (P54855 24-530): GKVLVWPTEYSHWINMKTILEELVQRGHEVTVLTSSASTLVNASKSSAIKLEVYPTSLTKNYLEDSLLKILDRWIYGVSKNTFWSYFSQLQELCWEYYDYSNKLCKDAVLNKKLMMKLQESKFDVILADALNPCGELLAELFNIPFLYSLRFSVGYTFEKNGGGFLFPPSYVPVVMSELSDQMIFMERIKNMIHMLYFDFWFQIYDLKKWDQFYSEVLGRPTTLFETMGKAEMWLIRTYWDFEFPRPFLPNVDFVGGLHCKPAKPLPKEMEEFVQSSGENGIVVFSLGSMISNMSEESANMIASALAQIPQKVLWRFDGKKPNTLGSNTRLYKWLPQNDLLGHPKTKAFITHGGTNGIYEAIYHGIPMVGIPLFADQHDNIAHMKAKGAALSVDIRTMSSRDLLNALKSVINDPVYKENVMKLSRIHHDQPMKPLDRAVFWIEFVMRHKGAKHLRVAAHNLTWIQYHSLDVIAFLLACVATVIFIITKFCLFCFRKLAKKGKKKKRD

[5] = system: human drug metabolizing enzymes and transporters; experiment: Inhibitory DDI index of XueBiJing compounds as perpetrators; settings: XueBiJing at label dose; range over the named compounds
[6] = ref Supporting Information Table S2; cited from earlier work
CYP1A2 = settings: higher concentrations; range over the named compounds and enzymes
CYP3A4 = settings: higher concentrations; range over the named compounds and enzymes
OAT3 = biological target: T2, OAT3 (Homo sapiens, UniProt Q8TCC7); type: in vitro ADME
T2 sequence (Q8TCC7 1-542): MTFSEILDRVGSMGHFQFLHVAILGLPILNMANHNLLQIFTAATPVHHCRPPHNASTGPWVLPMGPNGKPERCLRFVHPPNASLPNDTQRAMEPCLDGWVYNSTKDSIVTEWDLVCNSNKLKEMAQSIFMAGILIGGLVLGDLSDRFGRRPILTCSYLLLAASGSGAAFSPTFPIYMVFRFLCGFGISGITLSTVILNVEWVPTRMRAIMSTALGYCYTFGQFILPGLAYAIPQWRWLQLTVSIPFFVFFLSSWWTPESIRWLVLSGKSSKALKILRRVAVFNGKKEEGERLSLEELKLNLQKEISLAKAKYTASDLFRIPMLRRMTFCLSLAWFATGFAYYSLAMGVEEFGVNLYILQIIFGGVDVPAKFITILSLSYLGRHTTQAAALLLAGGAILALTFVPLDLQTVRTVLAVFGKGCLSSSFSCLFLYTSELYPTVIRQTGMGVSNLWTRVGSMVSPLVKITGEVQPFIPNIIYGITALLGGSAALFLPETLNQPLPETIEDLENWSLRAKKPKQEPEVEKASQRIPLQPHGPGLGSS

[7] = type: in vivo; settings: human; XueBiJing at label dose 100 mL
[8] = human, XueBiJing 100 mL via 75-min intravenous infusion

Row | SMILES | Membrane permeability [1] | pKa [2] | LogD(7.4) [2] | fu-p (unbound fraction in plasma) [3] | Cmax [3, 8] | VSS [3, 8] | t1/2 [3, 8] | Major elimination route ([3]; human) | Related metabolism and transport data (substrate status) [4] | Km (UGT2B15) | DDI index for inhibition of CYP2C9, CYP2C19, OATP1B1, OATP1B3, OAT1 and/or OAT3 [5] | Effective concentration(s) [6] | mRNA-T/U ratio, CYP1A2 (CYP1A2) | mRNA-T/U ratio, CYP3A4 (CYP3A4) | IC50 (OAT3) | Unbound Cmax [7]
1 | CCC/C=C1\OC(=O)C2=C1CC[C@@H](O)[C@@H]2O [X5, senkyunolide I] | Good | 12.8 | 0.8 | 54% | 400 nM | 1.26 L/kg | 48 min | Hepatic glucuronidation, to form senkyunolide I-7-O-β-glucuronide (X6) (This results in formation of a glutathione conjugate, suggesting formation of electrophilic metabolite.) | Highly selective UGT2B15 substrate | 18.4 µM |  |  |  |  |  | 
2 | O=C(O)c1ccc(O)c(O)c1 [X11, protocatechuic acid] | Intermediate | 4.5 | −1.9 | 79% | 40 nM |  | 30 min | Hepatic methylation and sulfation |  |  | 0.00003–0.06 | 1 to 130 µmol/L | 4.0 to 9.6 | 4.0 to 9.6 | 28 ± 7 µM | 30 nM
